Results: patent US20230150924A1, “NOVEL COMPOUND HAVING CANCER METASTASIS INHIBITORY ACTIVITY, PREPARATION METHOD THEREFOR, AND PHARMACEUTICAL COMPOSITION FOR INHIBITING CANCER METASTASIS AND INVASION OR TREATING COLORECTAL CANCER, COMPRISING COMPOUND” (CELLGENTEK CO., LTD., priority 2019, published 2023)

Experiments:
[1] = system: invasion of colorectal cancer cells; assay: In vivo relative invation (invasion; EV and KITENIN controls, no method described); details: relative to EV (=1); KIT = KITENIN
KAI1 promoter = KAI1 promoter luciferase reporter assay in transfected Caco2 cells; assay type: cell-based, human; details: Homo sapiens, Caco-2, 16 h, 1 μM compound, 16 hours, transfected Caco2 cells, luciferase activity relative to DMSO control (=1); read-out: Relative KAI promoter activity

Row | Compound | In vivo relative invation [1] | fold induction at 1 µM (KAI1 promoter)
1 | O=C(CNC(=O)c1ccco1)c1ccc(Cl)cc1 [Example 46, N-(2-(4-chlorophenyl)-2-oxoethyl)furan-2-carboxamide] | 1.181 | 0.98
2 | CN(C)c1ccc(C(=O)CNC(=O)c2ccc(F)cc2)cc1 [Example 91, N-(2-(4-(dimethylamino)phenyl)-2-oxoethyl)-4-fluorobenzamide] | 1.058 | 2.44
3 | O=C(CNC(=O)C1CC1)c1ccc(N2CCOCC2)cc1 [Example 143, N-(2-(4-morpholinophenyl)-2-oxoethyl)cyclopropanecarboxamide] | 0.8028 | 1.16
4 | O=C(CNC(=O)C1CC1)c1ccccc1 [Example 16, N-(2-oxo-2-phenylethyl)cyclopropanecarboxamide] | 0.9645 | 0.92
5 | CN(C)c1ccc(C(=O)CNS(=O)(=O)c2ccccc2)cc1 [Example 109, N-(2-(4-(dimethylamino)phenyl)-2-oxoethyl)benzenesulfonamide] | 0.9054 | 2.89
6 | O=C(CNC(=O)c1ccc(CN2CCN(c3ncccn3)CC2)cc1)c1ccccc1 [Example 258, N-(2-oxo-2-phenylethyl)-4-((4-(pyrimidin-2-yl)piperazin-1-yl)methyl)benzamide] | 1.223 | 2.31
7 | CCCCN(CCO)Cc1ccc(C(=O)NCC(=O)c2ccccc2)cc1 [Example 268, 4-((butyl(2-hydroxyethyl)amino)methyl)-N-(2-oxo-2-phenylethyl)benzamide] | 1.22 | 1.6
8 | CCC(=O)NCC(=O)c1ccc(N(C)C)cc1 [Example 99, N-(2-(4-(dimethylamino)phenyl)-2-oxoethyl)propionamide] | 1.134 | 1.71
9 | COc1ccccc1N1CCN(Cc2cccc(C(=O)NCC(=O)c3ccccc3)c2)CC1 [Example 236, 3-((4-(2-methoxyphenyl)piperazin-1-yl)methyl)-N-(2-oxo-2-phenylethyl)benzamide] | 1.112 | 1.3
10 | O=C(CNC(=O)c1ccc(CN(C2CCCCC2)C2CCCCC2)cc1)c1ccccc1 [Example 270, 4-((dicyclohexylamino)methyl)-N-(2-oxo-2-phenylethyl)benzamide] | 1.238 | 1.47
11 | COc1ccc(C(=O)NCC(=O)c2ccc(Cl)cc2)cc1 [Example 52, N-(2-(4-chlorophenyl)-2-oxoethyl)-4-methoxybenzamide] | 1.158 | 1.36
12 | O=C(COc1ccccc1C(=O)NCC(=O)c1ccccc1)Nc1cc(C(F)(F)F)ccc1F [Example 222, 2-(2-((2-fluoro-5-(trifluoromethyl)phenyl)amino)-2-oxoethoxy)-N-(2-oxo-2-phenylethyl)benzamide] | 1.275 | 1.2
13 | COc1cccc(C(=O)CNC(=O)C2CCC2)c1 [Example 126, N-(2-(3-methoxyphenyl)-2-oxoethyl)cyclobutanecarboxamide] | 1.352 | 1.08
14 | COCC(=O)NCC(=O)c1ccc(N(C)C)cc1 [Example 106, N-(2-(4-(dimethylamino)phenyl)-2-oxoethyl)-2-methoxyacetamide] | 1.171 | 2.44
15 | COc1cccc(C(=O)CNC(=O)c2cccc(CN3CC(C)OC(C)C3)c2)c1 (stereo not shown) [Example 295, 3-((2,6-dimethylmorpholino)methyl)-N-(2-(3-methoxyphenyl)-2-oxoethyl)benzamide] | 1.311 | 1.52
16 | COc1cccc(C(=O)CNS(=O)(=O)c2ccccc2)c1 [Example 129, N-(2-(3-methoxyphenyl)-2-oxoethyl)benzenesulfonamide] | 1.298 | 1.3
17 | CC(C)(C)C(=O)N1CCC(Oc2ccccc2C(=O)NCC(=O)c2ccccc2)CC1 [Example 179, N-(2-oxo-2-phenylethyl)-2-((1-pivaloylpiperidin-4-yl)oxy)benzamide] | 1.081 | 0.97
18 | O=C(CNC(=O)c1ccccc1OC1CCN(S(=O)(=O)c2ccccc2)CC1)c1ccccc1 [Example 187, N-(2-oxo-2-phenylethyl)-2-((1-(phenylsulfonyl)piperidin-4-yl)oxy)benzamide] | 1.235 | 1.03
19 | CCN(C)Cc1cccc(C(=O)NCC(=O)c2cccc(OC)c2)c1 [Example 287, 3-((ethyl (methyl)amino)methyl)-N-(2-(3-methoxyphenyl)-2-oxoethyl)benzamide] | 1.376 | 2.06

Row | Compound | In vivo relative invation [1] | fold induction at 1 µM (KAI1 promoter)
20 | COc1cccc(NC(=O)COc2ccccc2C(=O)NCC(=O)c2ccccc2)c1 [Example 209, 2-(2-((3-methoxyphenyl)amino)-2-oxoethoxy)-N-(2-oxo-2-phenylethyl)benzamide] | 1.07 | 1.12
21 | COc1cccc(C(=O)CNC(=O)c2cccc(CN3CCc4ccccc4C3)c2)c1 [Example 279, 3-((3,4-dihydroisoquinolin-2(1H)-yl)methyl)-N-(2-(3-methoxyphenyl)-2-oxoethyl)benzamide] | 1.187 | 2.28
22 | CN(C)c1ccc(C(=O)CNC(=O)c2cc(Cl)cc(Cl)c2)cc1 [Example 117, 3,5-dichloro-N-(2-(4-(dimethylamino)phenyl)-2-oxoethyl)benzamide] | 1.076 | 1.32
23 | CN(C)c1ccc(C(=O)CNC(=O)c2ccc(OC(F)(F)F)cc2)cc1 [Example 119, N-(2-(4-(dimethylamino)phenyl)-2-oxoethyl)-4-(trifluoromethoxy)benzamide] | 1.203 | 1.35
24 | O=C(CNC(=O)c1ccc(CN2CCN(c3ccccc3F)CC2)cc1)c1ccccc1 [Example 257, 4-((4-(2-fluorophenyl)piperazin-1-yl)methyl)-N-(2-oxo-2-phenylethyl)benzamide] | 1.338 | 1.36
25 | O=C(CNC(=O)c1ccccc1C(F)(F)F)c1ccc(Cl)cc1 [Example 73, N-(2-(4-chlorophenyl)-2-oxoethyl)-2-(trifluoromethyl)benzamide] | 1.116 | 0.99
26 | O=C(CNC(=O)c1ccc(CN2CCN(c3ccc([N+](=O)[O-])cc3)CC2)cc1)c1ccccc1 [Example 261, 4-((4-(4-nitrophenyl)piperazin-1-yl)methyl)-N-(2-oxo-2-phenylethyl)benzamide] | 1.197 | 1.25
27 | O=C(COc1ccccc1C(=O)NCC(=O)c1ccccc1)NCc1cccc(F)c1 [Example 205, 2-(2-((fluorobenzyl)amino)-2-oxoethoxy)-N-(2-oxo-2-phenylethyl)benzamide] | 1.166 | 1.1
28 | CC(C)(C)CC(=O)N1CCC(Oc2ccccc2C(=O)NCC(=O)c2ccccc2)CC1 [Example 170, 2-((1-(3,3-dimethylbutanoyl)piperidin-4-yl)oxy)-N-(2-oxo-2-phenylethyl)benzamide] | 1.244 | 1.03
29 | O=C(CNS(=O)(=O)Cc1ccccc1)c1ccccc1 [Example 28, N-(2-oxo-2-phenylethyl)-1-phenylmethanesulfonamide] | 1.057 | 1.02
30 | O=C(CNC(=O)c1ccccc1OC1CCN(C(=O)c2cc(C(F)(F)F)cc(C(F)(F)F)c2)CC1)c1ccccc1 [Example 190, 2-((1-(3,5-bis(trifluoromethyl)benzoyl)piperidin-4-yl)oxy)-N-(2-oxo-2-phenylethyl)benzamide] | 1.203 | 0.83
31 | C/C=C/C(=O)NCC(=O)c1cccc(OC)c1 [Example 123, (E)-N-(2-(3-methoxyphenyl)-2-oxoethyl)but-2-enamide] | 1.312 | 1.14
32 | O=C(COc1ccccc1C(=O)NCC(=O)c1ccccc1)Nc1ccc2c(c1)CCC2 [Example 219, 2-(2-((2,3-dihydro-1H-inden-5-yl)amino)-2-oxoethoxy)-N-(2-oxo-2-phenylethyl)benzamide] | 1.145 | 1.27
33 | COc1cccc(C(=O)CNC(=O)C2CC2)c1 [Example 125, N-(2-(3-methoxyphenyl)-2-oxoethyl)cyclopropanecarboxamide] | 0.8965 | 1.48
34 | Cc1ccc(S(=O)(=O)N2CCC(Oc3ccccc3C(=O)NCC(=O)c3ccccc3)CC2)cc1 [Example 185, N-(2-oxo-2-phenylethyl)-2-((1-tosylpiperidin-4-yl)oxy)benzamide] | 1.114 | 1.12
35 | CC(C)NC(=O)COc1ccccc1C(=O)NCC(=O)c1ccccc1 [Example 226, 2-(2-(isopropylamino)-2-oxoethoxy)-N-(2-oxo-2-phenylethyl)benzamide] | 1.349 | 1.09
36 | O=C(CNC(=O)c1ccccc1OC1CCN(C(=O)N2CCOCC2)CC1)c1ccccc1 [Example 171, 2-((1-(morpholine-4-carbonyl)piperidin-4-yl)oxy)-N-(2-oxo-2-phenylethyl)benzamide] | 1.191 | 1.07
37 | CCCCN(C)Cc1ccc(C(=O)NCC(=O)c2ccccc2)cc1 [Example 271, 4-((butyl (methyl)amino)methyl)-N-(2-oxo-2-phenylethyl)benzamide] | 1.228 | 1.31
38 | O=C(COc1ccccc1C(=O)NCC(=O)c1ccccc1)Nc1ccc2c(c1)OCO2 [Example 217, 2-(2-(benzo [d] [1,3]dioxol-5-ylamino)-2-oxoethoxy)-N-(2-oxo-2-phenylethyl)benzamide] | 1.266 | 1.18
